The text below walks through data of BindingDB's records for doi:10.1021/acs.jmedchem.6b01315 (Constellation Pharmaceuticals, 2016).

pIC50: −log10 of the molar value.

For orientation: pIC50 means −log10 of the IC50, conventionally taken in molar units. A higher pIC50 goes with a low IC50.

The target in this experiment is Histone-lysine N-methyltransferase EZH2 (Homo sapiens, UniProt Q15910). The experiment can be described thus: Inhibition of EZH2 Y641F mutant in PRC2 complex (unknown origin) using RKQLATKAARK(Me3)SAPATGGVKKP-NH2 peptide substrate preincubated for 30 mins followed by addition of [3H]-SAM measured after 2 hrs by Topcount scintillation proximity assay.
`COc1cc(C)[nH]c(=O)c1CNC(=O)c1c(C)n([C@H](C)C2CCNCC2)c2ccccc12` gave a pIC50 of 8.41.
`COc1cc(C)[nH]c(=O)c1CNC(=O)c1c(C)n([C@H](C)C2CCN(C)CC2)c2ccccc12`: the pIC50 was 8.77.
As for `COc1cc(C)[nH]c(=O)c1CNC(=O)c1c(C)n([C@H](C)C2CCN(C(=O)C(C)C)CC2)c2ccccc12`, the pIC50 was 7.80.
In turn, `COc1cc(C)[nH]c(=O)c1CNC(=O)c1c(C)n([C@H](C)C2CCN(C(=O)OC(C)C)CC2)c2ccccc12` gave a pIC50 of 8.39.
Take `COc1cc(C)[nH]c(=O)c1CNC(=O)c1c(C)n([C@H](C)C2CCN(C(=O)N(C)C)CC2)c2ccccc12`: the pIC50 is 8.05. Against the preceding compound, the pIC50 is 0.34 log units lower.
Regarding `COc1cc(C)[nH]c(=O)c1CNC(=O)c1c(C)n([C@H](C)C2CCN(C3COC3)CC2)c2ccccc12`, the pIC50 is 8.77. Compared with the last compound, the pIC50 is 0.72 log units higher.
With `CCOC(=O)CN1CCC([C@@H](C)n2c(C)c(C(=O)NCc3c(OC)cc(C)[nH]c3=O)c3ccccc32)CC1` the figure was 8.60.
`COc1cc(C)[nH]c(=O)c1CNC(=O)c1c(C)n([C@H](C)C2CCN(CCC(F)(F)F)CC2)c2ccccc12` had a pIC50 of 8.32.
For the compound `COc1cc(C)[nH]c(=O)c1CNC(=O)c1c(C)n([C@H](C)C2CCN(CC(F)(F)C(F)F)CC2)c2ccccc12`, the pIC50 was 8.48.
Take `COc1cc(C)[nH]c(=O)c1CNC(=O)c1c(C)n([C@H](C)C2CCN(CC(F)F)CC2)c2ccccc12`: the pIC50 is 8.42. The pIC50 values of the last two compounds are within 0.2 log units of each other.
